This is an account of results in article PMC3298469, “A selective and potent CXCR3 antagonist SCH 546738 attenuates the development of autoimmune diseases and delays graft rejection” (BMC Immunology, 2012).

For experiment [1], the target named is T1, CXCR3 (Homo sapiens, UniProt P49682).
T1 sequence (P49682 1-368): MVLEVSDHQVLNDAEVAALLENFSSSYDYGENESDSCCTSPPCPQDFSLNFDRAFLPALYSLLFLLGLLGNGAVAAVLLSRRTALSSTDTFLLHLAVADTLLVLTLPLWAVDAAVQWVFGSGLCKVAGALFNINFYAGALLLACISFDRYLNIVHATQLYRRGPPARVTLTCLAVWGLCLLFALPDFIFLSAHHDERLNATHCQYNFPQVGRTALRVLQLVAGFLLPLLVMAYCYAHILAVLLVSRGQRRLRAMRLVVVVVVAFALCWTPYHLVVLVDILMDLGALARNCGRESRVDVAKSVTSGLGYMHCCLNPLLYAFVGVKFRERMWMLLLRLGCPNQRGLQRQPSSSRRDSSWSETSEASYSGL
Briefly: competition binding analysis using 35S-SCH 535390 as tracer (SPA). Details: expressed in transfected cells; host or cells: mouse pro-B Ba/F3 cells (vector pME18Sneo), membrane preparation. To be noted: competition with 35S-SCH 535390 tracer; multiple experiments; read-out: affinity constant (Ki) of binding to human CXCR3 receptor. The protocol: (§1) The cDNAs encoding human, mouse and rat CXCR3 were generated based on the published sequences: human (NM_001504), mouse (NM_009910), rat (NM_053415). The cDNAs for monkey and dog CXCR3 were cloned in the lab. All CXCR3 cDNAs were cloned into the mammalian expression vector pME18Sneo, a derivative of the SRα expression vector as described previously. IL-3-dependent mouse pro-B cells Ba/F3 were transfected to express CXCR3 of different species and cell membranes were prepared as described previously.
A scintillation proximity assay was used for radioligand competition binding assays as described previously with some modifications. For each assay point, 1 µg of membrane was preincubated for 1 hr with 300 µg wheat germ agglutinin (WGA) coated SPA beads (GE Healthcare Life Sciences) in the binding buffer (50 mM HEPES, 1 mM CaCl2, 5 mM MgCl2, 125 mM NaCl, 0.002% NaN3, 1.0% BSA) at room temperature. The beads were spun down, resuspended in the binding buffer and transferred to a 96-well Isoplate (Wallac, Gaithersburg, MD). The indicated concentrations of ^125I-hCXCL10, ^125I-hCXCL11 or ^35S-SCH 535390 with a series of titrations of SCH 546738 were added to start the reaction. After indicated reaction times at room temperature, the amount of radioactivity bound to the SPA beads was determined with a Wallac 1450 Microbeta counter (Wallac). […]

For the next experiment, the system named is rat cardiac allograft. The experiment is described as follows: rat cardiac allograft transplant model (ACI to Lewis). To be noted: for mean survival time of the graft (MST): vehicle MST = 6 days. Format: in vivo. As for the experimental part:
Cardiac graft of ACI (RT1a) rats was heterotopically transplanted into the abdominal cavity of Lewis (RT1^l) recipients employing a microvascular surgical technique as described. The grafts were monitored daily by abdominal palpation, and the complete cessation of heart contraction was defined as graft rejection. SCH 546738 or 0.4% methylcellulose (vehicle) was orally administered at the indicated dose (0.2 ml) twice a day, starting on the day before transplantation until the day of graft rejection. To test whether SCH 546738 enhanced the effect of conventional immunosuppressive reagent, the recipients were received treatment with subtherapeutic dose of CsA for one week combined with treatment with SCH 546738. Graft survival was analyzed using the log-rank test. The parametric data were analyzed by Student t test (2-tailed) using GraphPad InStat version 5.0.1 for Windows 98, GraphPad Software, San Diego California USA (http://www.graphpad.com). p < 0.05 was considered statistically significant.
SCH 546738 was administered orally twice daily at 1, 5 and 15 mpk. […] Graft survival was analyzed using the log-rank test.

For a further experiment, the system named is male B10.RIII mice. The experiment is described as follows: mouse collagen-induced arthritis (disease score and paw histopathology). Format: in vivo.
For the next experiment, the target named is T2, dog CXCR3 (Canis lupus familiaris, UniProt Q5KSK8).
T2 construct: expressed in transfected cells; host or cells: mouse pro-B Ba/F3 cells (vector pME18Sneo), membrane preparation
T2 sequence (Q5KSK8 whole entry): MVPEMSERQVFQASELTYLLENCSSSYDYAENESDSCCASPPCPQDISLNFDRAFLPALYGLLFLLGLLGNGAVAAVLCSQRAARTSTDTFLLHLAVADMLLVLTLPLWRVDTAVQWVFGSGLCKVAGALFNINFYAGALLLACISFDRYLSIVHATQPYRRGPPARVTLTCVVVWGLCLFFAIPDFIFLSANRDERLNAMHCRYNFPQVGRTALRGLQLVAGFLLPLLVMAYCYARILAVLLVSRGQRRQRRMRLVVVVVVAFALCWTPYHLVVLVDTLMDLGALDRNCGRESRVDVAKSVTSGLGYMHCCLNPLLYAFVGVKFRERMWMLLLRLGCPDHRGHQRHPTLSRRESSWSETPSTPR
Briefly: [125I]hCXCL10 competition binding (SPA, Ba/F3 membranes). To be noted: read-out: IC50 (nM) (CXCL10). As for the experimental part: as §1
(§2) A scintillation proximity assay was used for radioligand competition binding assays as described previously with some modifications. For each assay point, 1 µg of membrane was preincubated for 1 hr with 300 µg wheat germ agglutinin (WGA) coated SPA beads (GE Healthcare Life Sciences) in the binding buffer (50 mM HEPES, 1 mM CaCl2, 5 mM MgCl2, 125 mM NaCl, 0.002% NaN3, 1.0% BSA) at room temperature. The beads were spun down, resuspended in the binding buffer and transferred to a 96-well Isoplate (Wallac, Gaithersburg, MD). The indicated concentrations of ^125I-hCXCL10, ^125I-hCXCL11 or ^35S-SCH 535390 with a series of titrations of SCH 546738 were added to start the reaction. After indicated reaction times at room temperature, the amount of radioactivity bound to the SPA beads was determined with a Wallac 1450 Microbeta counter (Wallac).
(§3) It is important to investigate species specificity of SCH 546738 to design in vivo preclinical studies.

The next experiment concerns the target T3, mouse CXCR3 (Mus musculus, UniProt O88410).
T3 construct: expressed in transfected cells; host or cells: mouse pro-B Ba/F3 cells (vector pME18Sneo), membrane preparation
The description is as above. To be noted: read-out: IC50 (nM) (CXCL10). The protocol: as §1, §2, §3

The target in another experiment is T4, rat CXCR3 (Rattus norvegicus, UniProt Q9JII9).
T4 construct: expressed in transfected cells; host or cells: mouse pro-B Ba/F3 cells (vector pME18Sneo), membrane preparation
T4 sequence (Q9JII9 whole entry): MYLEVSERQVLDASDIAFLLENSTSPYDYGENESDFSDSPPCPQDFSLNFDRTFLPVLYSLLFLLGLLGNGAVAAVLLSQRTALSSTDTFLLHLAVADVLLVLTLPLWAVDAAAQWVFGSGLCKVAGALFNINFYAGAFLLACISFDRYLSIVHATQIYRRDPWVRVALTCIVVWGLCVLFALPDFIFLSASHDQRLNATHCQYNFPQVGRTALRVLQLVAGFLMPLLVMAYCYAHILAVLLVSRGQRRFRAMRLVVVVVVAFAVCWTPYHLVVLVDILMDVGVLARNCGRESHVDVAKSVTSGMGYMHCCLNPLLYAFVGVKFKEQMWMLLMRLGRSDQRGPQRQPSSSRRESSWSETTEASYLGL
The experiment is described as above. To be noted: read-out: IC50 (nM) (CXCL10). As for the experimental part:
as §1, §2, §3

Experiment [2] concerns the target T1, CXCR3. Briefly: [125I]hCXCL11 competition binding (SPA, Ba/F3 membranes). Details: expressed in transfected cells; host or cells: mouse pro-B Ba/F3 cells (vector pME18Sneo), membrane preparation. As for the experimental part:
as §1, §2
The ability of SCH 546738 to compete the binding of [^125I]hCXCL10 and [^125I]hCXCL11 to human CXCR3 receptor was determined using various concentrations of [^125I]hCXCL10 and [^125I]hCXCL11 as described in Methods. After 3 hr reaction, specific counts relative to input counts (B/B0) in the presence of increasing concentrations of SCH 546738 are plotted.

Where [3] appears, read: 40 mpk, paws collected on day 9.

Molecules are shown by their SMILES. Where two headings read alike, the source gives them in different places.

The term Ki denotes a measure of affinity in units of concentration, obtained from inhibition or displacement.

T3 sequence (O88410 whole entry): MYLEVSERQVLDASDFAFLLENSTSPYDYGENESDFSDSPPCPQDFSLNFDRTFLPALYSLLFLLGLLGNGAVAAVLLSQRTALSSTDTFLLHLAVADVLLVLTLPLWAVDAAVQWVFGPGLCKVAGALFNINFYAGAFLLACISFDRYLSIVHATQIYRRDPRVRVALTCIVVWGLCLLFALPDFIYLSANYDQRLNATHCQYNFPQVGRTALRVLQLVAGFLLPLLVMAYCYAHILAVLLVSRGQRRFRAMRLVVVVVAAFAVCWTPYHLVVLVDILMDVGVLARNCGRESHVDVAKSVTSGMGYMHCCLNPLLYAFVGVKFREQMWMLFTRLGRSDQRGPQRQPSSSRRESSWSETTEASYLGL
Procedure for male B10.RIII mice: Briefly, 12-week-old male B10.RIII mice (Jackson Laboratories, Bar Harbor, ME) were immunized intradermally at five sites with bovine type II collagen (Elastin Products, Owensville, MO) emulsified with an equal volume of complete Freund's adjuvant (CFA). CFA was comprised of a mixture of incomplete Freund's adjuvant (Difco, Detroit, MI) and heat-killed, freeze-dried Mycobacteria tuberculosis (Ministry of Agriculture, Fisheries & Food, Surrey, England). Each mouse received 300 µg/ml bovine type II collagen and 0.5 mg/ml complete Freund's adjuvant. Mice were boosted intraperitoneally with 100 µg of bovine type II collagen on day 20. Disease progression was monitored by a standardized visual scoring system with a scale from 0 to 12 reflecting the degree of swelling/redness of each paw (maximal score 3 per paw) and the number of paws (maximal 4) involved per individual animal.
After euthanasia, front and hind paws of the animals were dissected and fixed by immersion in 10% phosphate-buffered formalin before decalcification. Following decalcification with Cal-Rite (Richard Allen Scientific, Kalamazoo, MI), formalin fixed tissues were processed and sectioned at 5µm. Paraffin sections were stained with Hematoxylin and Eosin (H&E). […] The changes in joint structures, including cartilage destruction, bone erosion/remodelling and pannus formation were scored as follows: 0 = Normal, 1 = Minimal, 2 = Mild, 3 = Moderate, 4 = Marked, 5 = Severe. A grade of 5.5 was also added to address full-thickness cartilage breach. Cellular infiltrates and inflammation in animal joints were scored as the following: 0 = Normal, 1 = Minimal, 2 = Mild, 3 = Moderate, 4 = Marked.
Statistical significance was evaluated by comparing the vehicle-treated group with the experimental group using unpaired t-test. Differences were considered significant when p values were <0.05.
Sixteen days later which was 4 days prior to receiving a BC II boost (day -4); mice were randomized into treatment groups with approximately 10% of the animals in each group having developed at least one swollen paw. Oral twice daily treatment with SCH 546738 was initiated at this time (day -4) and continued through day 9, with a BC II antigen boost on day 0.
SCH 546738 in 0.4% methylcellulose was administered orally twice daily at 3, 10 and 40 mg/kg (mpk). Dosing was initiated 16 days (day -4) postimmunization and continued through day 9.
Paws collected at day 9 from the vehicle (0.4% methylcellulose) and 40 mpk SCH 546738 groups of two independent experiments were analyzed by histopathology.

`CC[C@H]1CN(c2nc(N)c(C(N)=O)nc2Cl)CCN1C1CCN(Cc2ccc(Cl)cc2)CC1` [SCH 546738]: at CXCR3 [1], the Ki came to 0.4 nM. The “mean survival time of the graft (MST)” value in the experiment on rat cardiac allograft (1 mpk oral twice daily) amounted to 11 days; in the experiment with rat cardiac allograft (5 mpk oral twice daily) it was 14 days; in the experiment with rat cardiac allograft (15 mpk oral twice daily), 14.9 days. In addition, the “rate of permanent engraftment” value in the experiment with rat cardiac allograft (5 mpk SCH 546738 twice daily in combination with 2.5 mpk cyclosporine) came out at 100%. In addition, the “effect on disease severity” value with male B10.RIII mice (3 mpk oral twice daily) is “no statistically significant effect”. Besides, the “effect on disease score” value was “protected significantly” with male B10.RIII mice (10 mpk oral twice daily, days 7 and 9); “significant reduction of the disease score” in the experiment with male B10.RIII mice (40 mpk oral twice daily, day -4 to day 9, days 4, 7 and 9). In the experiment with male B10.RIII mice (setting [3]), the “leukocyte infiltration into the joint (histopathology score)” value is on record as “significantly attenuated”. Further, the “structural damage to the bone and cartilage (histopathology score)” value in the experiment on male B10.RIII mice (setting [3]) was “significantly attenuated”. In addition, the IC50 on dog CXCR3 amounted to 6.4 nM; at mouse CXCR3 it was 5.9 nM; at rat CXCR3, 4.2 nM; at CXCR3 [2] ([125I-hI-TAC] 12.5 pM, 3 hr reaction, read-out: IC50), 2 nM; at CXCR3 [2] ([125I-hI-TAC] 50 pM, 3 hr reaction, read-out: IC50) it was 1.8 nM; on CXCR3 [2] ([125I-hI-TAC] 250 pM, 3 hr reaction, read-out: IC50), 2.2 nM. Further, the IC50 on CXCR3 [2] ([125I]hCXCL11 12.5-250 pM, read-out: IC50 (constant, independent of input concentration)) is approximately 2 nM.
